Laboratory results from patent publication US10717734B2, “Indole and azaindole haloallylamine derivative inhibitors of lysyl oxidases and uses thereof” (PHARMAXIS LTD., priority 2016, dated 2020).
pIC50: −log10 of the molar value. Where a name gives a salt, the structure may show the parent alone.

Tests used:
[1] = system: primary fibroblasts from confirmed cases of IPF (fibroblastic foci); experiment: Collagen cross-link formation in in vitro fibroblastic foci model of IPF; type: cell-based, human; conditions: TGF-β1 stimulated foci, six weeks culture with inhibitor
Text: Reduction of Collagen Cross-Link Formation in an in vitro Fibroblastic Foci Model of IPF
The lung tissue of patients with idiopathic pulmonary fibrosis (IPF) is characterised by dense collections of myofibroblasts and extracellular matrix (ECM) termed ‘fibroblastic foci’. Using a novel in vitro model of fibroblastic foci (Jones et al., AJRCCM 191; 2015:A4912) the formation of lysyl oxidase (LOX) mediated collagen cross-links and the effects of the nonselective LOX inhibitor β-aminopropionitrile (BAPN) as well lysyl oxidase like-2 (LOXL2)-selective inhibitors were investigated.
Cultures of primary fibroblasts were grown out from clinical diagnostic biopsies of fibrotic lung and stored in liquid nitrogen. […]
To quantify collagen cross-links (Robins Biochem Soc Trans 2007; 35(5): 849-852; Saito et al Anal. Biochem. 1997; 253: 26-32; Sims, Avery & Bailey Methods in Molecular Biology 2000; vol 139: 11-26), cultures were treated with potassium borohydride to stabilise the reducible immature cross-links, and hydrolysed in 6N HCl at 100° C. for 16 hr. Total collagen content was assessed by hydroxyproline assay. Immature cross-links were assessed by LC/MS/MS and mature pyridinoline cross-links by ELISA. Cross-link data is expressed as moles of cross-link per mole collagen. […]

[2] = target: Bovine LOX (Bos taurus (Bovine), UniProt P33072); experiment: LOX inhibition, peroxidase-coupled Amplex Red amine oxidase assay; type: biochemical; conditions: 30 min preincubation at 37° C., putrescine substrate
Method in brief: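 Bovine LOX in 1.2 M urea, 50 mM sodium borate pH 8.2 […]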

[3] = target: Human recombinant SSAO/VAP-1 (Homo sapiens (Human), UniProt Q16853); experiment: Human recombinant SSAO/VAP-1 amine oxidase inhibition; type: biochemical; conditions: 30 min preincubation at 37° C., 600 μM benzylamine
Method in brief: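 Purified SSAO/VAP-1 (residues 34-763, expressed in CHO Lec 8 cells; 0.25 μg/mL) preincubated 30 min at 37° C with compound in 0.1 M sodium phosphate pH 7.4. Reaction mix of 600 μM benzylamine, 120 μM Amplex Red and 1.5 U/mL HRP added; fluorescence (ex 565/em 590 nm) read every 2.5 min for 30 min; IC50 from kinetic slopes over 4-11 point curves.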

[4] = target: Recombinant human MAO-B (Homo sapiens (Human), UniProt P27338); experiment: Human recombinant MAO-B inhibition; type: biochemical; conditions: benzylamine 100 μM
Method in brief: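 Recombinant human MAO-B (0.06 mg/mL) was the enzyme source, with benzylamine substrate at 100 μM. Otherwise run as for the human SSAO/VAP-1 assay.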

[5] = target: Human LOXL2 (Homo sapiens (Human), UniProt Q9Y4K0); experiment: LOXL2 inhibition, peroxidase-coupled Amplex Red amine oxidase assay; type: biochemical; conditions: 30 min preincubation at 37° C., putrescine substrate
Method in brief: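 Enzyme preincubated 30 min at 37 °C with compound (11-point curve) in 1.2 M urea, 50 mM borate pH 8.2 plus 1 μM mofegiline and 0.5 mM pargyline; putrescine at twice KM (10 mM for LOXL2), Amplex Red and HRP added. Fluorescence (565/590 nm) read every 2.5 min for 30 min; IC50 from kinetic slopes.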

[6] = system: CCl4 induced liver fibrosis; experiment: CCl4 induced liver fibrosis model; type: in vivo, rat; conditions: 0.1-100 mg/Kg
Procedure: Inhibition of CCl4 Induced Liver Fibrosis
An analysis of the use of LOXL2 inhibitors to treat inflammatory/fibrotic diseases is performed through the use of a CCl4 induced liver fibrosis model. Liver injury is frequently followed by complete parenchymal regeneration due to regenerative potency of hepatocytes. Continuous liver injury due to the administration of CCl4 leads to extracellular matrix accumulation, accompanied by recurrent hepatocyte necrosis, inflammation, and regenerative processes, causing liver fibrosis and consequently liver cirrhosis (see Natsume, M, et al., Attenuated liver fibrosis and depressed serum albumin levels in carbon tetrachloride-treated IL-6-deficient mice. J. Leukoc. Biol., 1999, 66, 601-608 also See Yao, Q, Y, et al. Inhibition by curcumin of multiple sites of the transforming growth factor-beta1 signalling pathway ameliorates the progression of liver fibrosis induced by carbon tetrachloride in rats. BMC Complement Altern Med. 2012 Sep. 16; 12(1):156.)
Rats are administered orally with CCl4 at a concentration of 0.25 μL/g in olive oil, 3 times per week for 6 weeks. Compound 22 is given 0.1-100 mg/Kg throughout the period of the experimental procedure or only 3 weeks after CCl4 administration and then throughout the entire study. […]

Sequence of Human recombinant SSAO/VAP-1 (Q16853 34-763): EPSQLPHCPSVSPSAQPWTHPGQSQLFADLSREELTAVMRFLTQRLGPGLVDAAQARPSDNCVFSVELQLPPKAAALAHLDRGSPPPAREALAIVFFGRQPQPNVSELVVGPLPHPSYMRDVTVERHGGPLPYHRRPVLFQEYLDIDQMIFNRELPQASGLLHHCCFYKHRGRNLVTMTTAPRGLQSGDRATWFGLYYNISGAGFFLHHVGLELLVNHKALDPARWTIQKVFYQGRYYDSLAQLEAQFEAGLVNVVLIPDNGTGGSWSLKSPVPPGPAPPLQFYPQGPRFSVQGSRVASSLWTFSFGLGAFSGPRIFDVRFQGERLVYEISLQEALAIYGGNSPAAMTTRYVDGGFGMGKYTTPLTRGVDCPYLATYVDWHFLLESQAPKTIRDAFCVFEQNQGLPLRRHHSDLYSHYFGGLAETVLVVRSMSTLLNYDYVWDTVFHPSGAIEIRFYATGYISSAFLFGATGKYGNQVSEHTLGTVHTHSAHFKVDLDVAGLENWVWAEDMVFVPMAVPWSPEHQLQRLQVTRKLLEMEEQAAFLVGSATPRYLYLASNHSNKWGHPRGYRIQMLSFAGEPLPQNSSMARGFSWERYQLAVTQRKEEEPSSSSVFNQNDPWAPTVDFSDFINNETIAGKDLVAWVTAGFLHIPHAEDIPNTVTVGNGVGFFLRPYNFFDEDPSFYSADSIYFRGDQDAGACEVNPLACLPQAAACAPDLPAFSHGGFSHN
Sequence of Human LOXL2 (Q9Y4K0 26-774): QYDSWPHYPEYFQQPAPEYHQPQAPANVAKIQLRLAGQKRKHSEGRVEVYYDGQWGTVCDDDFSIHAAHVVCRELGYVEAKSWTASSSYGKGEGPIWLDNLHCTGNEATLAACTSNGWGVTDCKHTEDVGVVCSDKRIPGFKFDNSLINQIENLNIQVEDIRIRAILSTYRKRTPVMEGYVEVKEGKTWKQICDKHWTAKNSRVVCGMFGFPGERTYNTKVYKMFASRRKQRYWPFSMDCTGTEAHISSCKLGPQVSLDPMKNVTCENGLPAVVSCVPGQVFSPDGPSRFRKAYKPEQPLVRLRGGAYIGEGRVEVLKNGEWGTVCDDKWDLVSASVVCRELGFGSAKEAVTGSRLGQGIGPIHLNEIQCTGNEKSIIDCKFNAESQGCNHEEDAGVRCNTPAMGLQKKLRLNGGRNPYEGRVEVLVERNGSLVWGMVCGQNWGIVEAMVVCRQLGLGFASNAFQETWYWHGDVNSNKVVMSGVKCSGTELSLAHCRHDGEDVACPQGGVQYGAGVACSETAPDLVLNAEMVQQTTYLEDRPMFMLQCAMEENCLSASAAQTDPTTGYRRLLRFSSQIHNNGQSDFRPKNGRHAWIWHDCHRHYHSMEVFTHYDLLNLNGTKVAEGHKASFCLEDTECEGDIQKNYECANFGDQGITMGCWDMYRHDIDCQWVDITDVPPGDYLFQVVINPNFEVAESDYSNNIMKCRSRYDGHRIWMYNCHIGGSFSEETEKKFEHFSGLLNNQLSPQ
Sequence of Bovine LOX (P33072 170-418): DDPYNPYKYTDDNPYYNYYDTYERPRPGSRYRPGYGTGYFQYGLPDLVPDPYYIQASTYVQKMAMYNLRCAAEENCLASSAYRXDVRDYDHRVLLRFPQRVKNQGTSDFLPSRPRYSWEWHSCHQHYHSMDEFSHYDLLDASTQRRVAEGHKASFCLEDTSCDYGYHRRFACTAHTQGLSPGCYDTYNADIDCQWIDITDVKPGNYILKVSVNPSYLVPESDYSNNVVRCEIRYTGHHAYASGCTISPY
Sequence of Recombinant human MAO-B (P27338 whole entry): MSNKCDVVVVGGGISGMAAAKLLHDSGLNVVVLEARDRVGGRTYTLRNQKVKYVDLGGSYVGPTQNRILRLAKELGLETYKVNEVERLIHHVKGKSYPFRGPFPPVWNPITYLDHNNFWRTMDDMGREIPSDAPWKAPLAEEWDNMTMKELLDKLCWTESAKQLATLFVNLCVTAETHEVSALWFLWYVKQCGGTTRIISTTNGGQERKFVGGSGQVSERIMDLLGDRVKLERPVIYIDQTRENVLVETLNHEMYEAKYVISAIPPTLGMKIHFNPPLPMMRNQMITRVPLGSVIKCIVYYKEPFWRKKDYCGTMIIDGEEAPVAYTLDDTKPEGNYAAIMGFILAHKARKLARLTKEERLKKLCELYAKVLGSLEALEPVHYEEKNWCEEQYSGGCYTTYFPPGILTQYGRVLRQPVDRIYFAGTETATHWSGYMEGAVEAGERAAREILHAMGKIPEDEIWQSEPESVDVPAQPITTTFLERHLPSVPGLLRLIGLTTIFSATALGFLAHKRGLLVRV

SMILES	collagen cross-link formation [1]	pIC50 [2]	pIC50 [3]	pIC50 [4]	pIC50 [5]	inhibition of liver collagen by hydroxyproline analysis ([6]; CCl4 model, statistically significant)	reduction of liver fibrosis by sirius red staining with quantification ([6]; rats, oral CCl4 3 times per week for 6 weeks, versus vehicle-treated group)
N#CCCN [BAPN, β-aminopropionitrile]	reduced cross-link formation in a concentration dependent manner						
Cc1c(Cc2ccc(S(=O)(=O)N(C)C)cc2)c2cc(C(=O)N(C)C)ccc2n1C/C(F)=C/CN [Compound 3, (Z)-1-(4-amino-2-fluorobut-2-en-1-yl)-3-(4-(N,N-dimethylsulfamoyl)benzyl)-N,N,2-trimethyl-1H-indole-5-carboxamide hydrochloride]		< 6.52	< 5.52	< 5.52	> 6.52		
Cc1c(Cc2ccc(S(=O)(=O)N(C)C)cc2)c2ncccc2n1C/C(F)=C/CN [Compound 8, (Z)-4-((1-(4-amino-2-fluorobut-2-en-1-yl)-2-methyl-1H-pyrrolo[3,2-b]pyridin-3-yl)methyl)-N,N-dimethylbenzenesulfonamide dihydrochloride]		< 6.52	< 5.52	< 5.52	> 6.52		
CC(C)c1c(Cc2ccc(S(C)(=O)=O)nc2)c2ncccc2n1C/C(F)=C/CN [Compound 22, trihydrochloride]		< 6.52	< 5.52	< 5.52	> 6.52	> 30%	up to 50%
Cc1c(Cc2ccc(S(C)(=O)=O)nc2)c2nc(C3CC3)ccc2n1C/C(F)=C/CN [Compound 27, (Z)-4-(5-cyclopropyl-2-methyl-3-((6-(methylsulfonyl)pyridin-3-yl)methyl)-1H-pyrrolo[3,2-b]pyridin-1-yl)-3-fluorobut-2-en-1-amine trihydrochloride]		< 6.52	< 5.52	< 5.52	> 6.52		
Cc1c(Cc2cccc(S(=O)(=O)N(C)C)c2)c2ncccc2n1C/C(F)=C/CN [Compound 18, dihydrochloride]		< 6.52	< 5.52	< 5.52	> 6.52		
Cc1ncc2c(n1)c(Cc1ccc(S(C)(=O)=O)cc1)c(C)n2C/C(F)=C/CN [Compound 38, (Z)-4-(2,6-dimethyl-7-(4-(methylsulfonyl)benzyl)-5H-pyrrolo[3,2-d]pyrimidin-5-yl)-3-fluorobut-2-en-1-amine dihydrochloride]		< 6.52	< 5.52	< 5.52	> 6.52		
Cc1cnc2c(Cc3ccc(S(=O)(=O)N(C)C)cc3)c(C)n(C/C(F)=C/CN)c2c1 [Compound 11, (Z)-4-((1-(4-amino-2-fluorobut-2-en-1-yl)-2,6-dimethyl-1H-pyrrolo[3,2-b]pyridin-3-yl)methyl)-N,N-dimethylbenzenesulfonamide dihydrochloride]		< 6.52	< 5.52	< 5.52	> 6.52		
Cc1c(Cc2ccc(S(=O)(=O)N(C)C)cc2)c2nc(C(C)(C)O)ccc2n1C/C(F)=C/CN [Compound 28, (Z)-4-((1-(4-amino-2-fluorobut-2-en-1-yl)-5-(2-hydroxypropan-2-yl)-2-methyl-1H-pyrrolo[3,2-b]pyridin-3-yl)methyl)-N,N-dimethylbenzenesulfonamide dihydrochloride]		< 6.52	< 5.52	< 5.52	> 6.52		
